Laboratory results as given in paper PMC9684079, “Pharmacological targeting of glutamatergic neurons within the brainstem for weight reduction” (Nature Metabolism, 2022).

Key:
Insulin = molecular target: T1, Insulin (Rattus norvegicus, UniProt P15127); experiment: biochemical; parameters: Cerep/Eurofins selectivity panel, receptors, channels and transporters, per cent inhibition at 10 uM; settings: read-out: % Inhibition
T1 construct: gene Insr

[1] = molecular target: T2, Protein Serine/Threonine Kinase, IKK-1 (Homo sapiens, UniProt O15111); experiment: biochemical; parameters: Cerep/Eurofins selectivity panel, enzymes, per cent inhibition at 10 uM; settings: read-out: % Inhibition
T2 construct: gene CHUK

Glucocorticoid = molecular target: T3, Glucocorticoid (Homo sapiens, UniProt P04150); experiment: biochemical; parameters: Cerep/Eurofins selectivity panel, receptors, channels and transporters, per cent inhibition at 10 uM; settings: read-out: % Inhibition
T3 construct: gene NR3C1

[2] = molecular target: T4, Protein Serine/Threonine Kinase, ATK1 (PRKBA) (Homo sapiens, UniProt P31749); experiment: biochemical; parameters: Cerep/Eurofins selectivity panel, enzymes, per cent inhibition at 10 uM; settings: read-out: % Inhibition
T4 construct: gene AKT1

[3] = molecular target: T5, Protein Tyrosine Kinase, ZA70 (ZAP-70) (Homo sapiens, UniProt P43403); experiment: biochemical; parameters: Cerep/Eurofins selectivity panel, enzymes, per cent inhibition at 10 uM; settings: read-out: % Inhibition
T5 construct: gene ZAP70

mouse Hcrtr1 = molecular target: T6, mouse Hcrtr1 (Mus musculus, UniProt P58307); experiment: FLIPR Ca2+ flux, antagonism of orexin A response; type: cell-based
T6 construct: CHO-K1 cells expressing Gα16 and mouse Hcrtr1

[4] = molecular target: T7, Growth Hormone Secretogogue (GHS, Ghrelin) (Homo sapiens, UniProt Q92847); experiment: biochemical; parameters: Cerep/Eurofins selectivity panel, receptors, channels and transporters, per cent inhibition at 10 uM; settings: read-out: % Inhibition
T7 construct: gene GHSR

[5] = molecular target: T8, Cholinesterase, Acetyl, ACES (Homo sapiens, UniProt P22303); experiment: biochemical; parameters: Cerep/Eurofins selectivity panel, enzymes, per cent inhibition at 10 uM
T8 construct: gene ACHE

[6] = molecular target: Protein Tyrosine Kinase, LYN B (Homo sapiens, UniProt P07948); experiment: biochemical; parameters: Cerep/Eurofins selectivity panel, enzymes, per cent inhibition at 10 uM; settings: read-out: % Inhibition
[7] = molecular target: T9, Nitric Oxide Synthase, inducible (iNOS) (Mus musculus, UniProt P29477); experiment: biochemical; parameters: Cerep/Eurofins selectivity panel, enzymes, per cent inhibition at 10 uM; settings: read-out: % Inhibition
T9 construct: gene Nos2

Androgen (Testosterone) = molecular target: T10, Androgen (Testosterone) (Homo sapiens, UniProt P10275); experiment: biochemical; parameters: Cerep/Eurofins selectivity panel, receptors, channels and transporters, per cent inhibition at 10 uM; settings: read-out: % Inhibition
T10 construct: gene AR

Calcium Channel N-type = molecular target: T11, Calcium Channel N-type (Rattus norvegicus, UniProt Q02294); experiment: biochemical; parameters: Cerep/Eurofins selectivity panel, receptors, channels and transporters, per cent inhibition at 10 uM; settings: read-out: % Inhibition
T11 construct: gene Cacna1b

[8] = molecular target: T12, Hcrtr1 (orexin 1 receptor) (Homo sapiens, UniProt O43613); experiment: radioligand displacement of [3H]SB674042; also FLIPR Ca2+ antagonism in Chem-1 cells (IC50 […]); type: binding
T12 construct: membranes from CHO-K1 cells stably expressing HCRTR1

[9] = molecular target: T13, Peptidase, Matrix metalloprotease-7 (MMP-7) (Homo sapiens, UniProt P09237); experiment: biochemical; parameters: Cerep/Eurofins selectivity panel, enzymes, per cent inhibition at 10 uM; settings: read-out: % Inhibition
T13 construct: gene MMP7

5-Lipoxygenase = molecular target: T14, 5-Lipoxygenase (Homo sapiens, UniProt P09917); experiment: biochemical; parameters: Cerep/Eurofins selectivity panel, enzymes, per cent inhibition at 10 uM; settings: read-out: % Inhibition
T14 construct: gene ALOX5

Peptidase, Renin = molecular target: T15, Peptidase, Renin (Homo sapiens, UniProt P00797); experiment: biochemical; parameters: Cerep/Eurofins selectivity panel, enzymes, per cent inhibition at 10 uM; settings: read-out: % Inhibition
T15 construct: gene REN

[10] = molecular target: T16, Protein Tyrosine Kinase, Insulin receptor (Homo sapiens, UniProt P06213); experiment: biochemical; parameters: Cerep/Eurofins selectivity panel, enzymes, per cent inhibition at 10 uM; settings: read-out: % Inhibition
T16 construct: gene INSR

[11] = molecular target: Protein Serine/Threonine Phosphatase, PPP3CA (Calccineurin, PP2B) (Homo sapiens, UniProt Q08209); experiment: biochemical; parameters: Cerep/Eurofins selectivity panel, enzymes, per cent inhibition at 10 uM; settings: read-out: % Inhibition
[12] = molecular target: T17, Protein Tyrosine Kinase, EGF receptor (Homo sapiens, UniProt P00533); experiment: biochemical; parameters: Cerep/Eurofins selectivity panel, enzymes, per cent inhibition at 10 uM; settings: read-out: % Inhibition
T17 construct: gene EGFR

[13] = molecular target: Protein Serine/Threonine Kinase, MAP2K1 (MEK1) (Homo sapiens, UniProt Q02750); experiment: biochemical; parameters: Cerep/Eurofins selectivity panel, enzymes, per cent inhibition at 10 uM; settings: read-out: % Inhibition
[14] = molecular target: T18, Peptidase, Matrix metalloprotease-1 (MMP-1) (Homo sapiens, UniProt P03956); experiment: biochemical; parameters: Cerep/Eurofins selectivity panel, enzymes, per cent inhibition at 10 uM; settings: read-out: % Inhibition
T18 construct: gene MMP1

[15] = molecular target: Protein Serine/Threonine Kinase, MAPK1 (ERK2) (Homo sapiens, UniProt P28482); experiment: biochemical; parameters: Cerep/Eurofins selectivity panel, enzymes, per cent inhibition at 10 uM; settings: read-out: % Inhibition
[16] = molecular target: Protein Serine/Threonine Kinase, GSK3B (Homo sapiens, UniProt P49841); experiment: biochemical; parameters: Cerep/Eurofins selectivity panel, enzymes, per cent inhibition at 10 uM; settings: read-out: % Inhibition
Peptidase, Factor Xa = molecular target: T19, Peptidase, Factor Xa (Homo sapiens, UniProt P00742); experiment: biochemical; parameters: Cerep/Eurofins selectivity panel, enzymes, per cent inhibition at 10 uM; settings: read-out: % Inhibition
T19 construct: gene F10; factor Xa

Hcrtr2 = molecular target: T20, Hcrtr2 (Homo sapiens, UniProt O43614); experiment: radioligand displacement of [3H]EMPA (weak; functional IC50 […]); type: binding
T20 construct: membranes from CHO-K1 cells stably expressing HCRTR2
T20 sequence (O43614 whole entry): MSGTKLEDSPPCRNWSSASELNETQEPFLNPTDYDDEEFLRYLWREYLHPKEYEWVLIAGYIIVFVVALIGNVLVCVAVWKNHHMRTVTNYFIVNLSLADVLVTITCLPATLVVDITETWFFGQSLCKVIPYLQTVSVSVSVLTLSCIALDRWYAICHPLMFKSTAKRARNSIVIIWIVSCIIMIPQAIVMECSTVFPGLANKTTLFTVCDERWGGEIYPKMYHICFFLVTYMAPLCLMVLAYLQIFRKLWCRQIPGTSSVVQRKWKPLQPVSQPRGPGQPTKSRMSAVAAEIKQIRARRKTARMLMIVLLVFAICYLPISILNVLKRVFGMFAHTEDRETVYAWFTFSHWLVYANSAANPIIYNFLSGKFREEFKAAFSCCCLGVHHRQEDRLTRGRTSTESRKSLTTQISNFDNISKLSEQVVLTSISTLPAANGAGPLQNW

T13 sequence (P09237 whole entry): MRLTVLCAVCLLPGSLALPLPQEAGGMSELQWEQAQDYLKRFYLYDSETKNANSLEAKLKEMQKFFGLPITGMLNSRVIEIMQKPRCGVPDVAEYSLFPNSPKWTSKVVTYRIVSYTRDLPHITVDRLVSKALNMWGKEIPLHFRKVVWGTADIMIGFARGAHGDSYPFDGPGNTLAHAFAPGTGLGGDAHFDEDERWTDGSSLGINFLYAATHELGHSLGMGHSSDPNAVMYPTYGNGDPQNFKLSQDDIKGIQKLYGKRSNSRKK
T3 sequence (P04150 whole entry): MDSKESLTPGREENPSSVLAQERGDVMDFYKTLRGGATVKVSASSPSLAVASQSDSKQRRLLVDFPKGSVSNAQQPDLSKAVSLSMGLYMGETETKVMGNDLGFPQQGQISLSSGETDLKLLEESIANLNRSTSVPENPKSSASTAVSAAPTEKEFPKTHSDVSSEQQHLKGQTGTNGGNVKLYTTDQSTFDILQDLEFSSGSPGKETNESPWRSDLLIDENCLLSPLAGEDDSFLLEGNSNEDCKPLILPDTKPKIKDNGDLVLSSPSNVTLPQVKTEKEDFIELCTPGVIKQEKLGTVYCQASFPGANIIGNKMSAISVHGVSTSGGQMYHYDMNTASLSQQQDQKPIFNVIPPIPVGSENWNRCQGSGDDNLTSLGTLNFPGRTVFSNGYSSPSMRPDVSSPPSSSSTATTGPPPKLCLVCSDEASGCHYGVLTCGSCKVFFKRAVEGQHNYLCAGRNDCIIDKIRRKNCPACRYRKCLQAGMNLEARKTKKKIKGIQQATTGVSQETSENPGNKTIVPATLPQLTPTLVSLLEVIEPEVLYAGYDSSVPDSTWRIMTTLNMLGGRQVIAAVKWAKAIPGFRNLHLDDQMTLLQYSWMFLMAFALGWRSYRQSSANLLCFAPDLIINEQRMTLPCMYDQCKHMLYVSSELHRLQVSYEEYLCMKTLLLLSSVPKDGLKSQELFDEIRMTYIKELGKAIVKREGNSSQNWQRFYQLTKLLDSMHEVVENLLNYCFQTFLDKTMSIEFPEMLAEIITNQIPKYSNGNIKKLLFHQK
Chain of Protein Tyrosine Kinase, LYN B (P07948 whole entry): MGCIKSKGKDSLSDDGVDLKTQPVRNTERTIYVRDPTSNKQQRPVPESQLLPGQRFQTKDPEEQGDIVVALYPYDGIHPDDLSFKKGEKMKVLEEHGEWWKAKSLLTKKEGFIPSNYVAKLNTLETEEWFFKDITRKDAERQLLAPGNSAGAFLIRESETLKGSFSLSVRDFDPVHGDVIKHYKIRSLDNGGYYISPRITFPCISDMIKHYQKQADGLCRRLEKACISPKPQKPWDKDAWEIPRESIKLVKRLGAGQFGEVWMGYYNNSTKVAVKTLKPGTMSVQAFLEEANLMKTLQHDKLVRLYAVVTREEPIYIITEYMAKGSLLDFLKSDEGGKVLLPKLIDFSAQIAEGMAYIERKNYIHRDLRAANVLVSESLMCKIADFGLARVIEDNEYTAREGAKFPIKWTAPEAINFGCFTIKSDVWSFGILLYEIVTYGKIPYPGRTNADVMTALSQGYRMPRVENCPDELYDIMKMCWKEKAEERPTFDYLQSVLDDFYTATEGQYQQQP
T17 sequence (P00533 whole entry): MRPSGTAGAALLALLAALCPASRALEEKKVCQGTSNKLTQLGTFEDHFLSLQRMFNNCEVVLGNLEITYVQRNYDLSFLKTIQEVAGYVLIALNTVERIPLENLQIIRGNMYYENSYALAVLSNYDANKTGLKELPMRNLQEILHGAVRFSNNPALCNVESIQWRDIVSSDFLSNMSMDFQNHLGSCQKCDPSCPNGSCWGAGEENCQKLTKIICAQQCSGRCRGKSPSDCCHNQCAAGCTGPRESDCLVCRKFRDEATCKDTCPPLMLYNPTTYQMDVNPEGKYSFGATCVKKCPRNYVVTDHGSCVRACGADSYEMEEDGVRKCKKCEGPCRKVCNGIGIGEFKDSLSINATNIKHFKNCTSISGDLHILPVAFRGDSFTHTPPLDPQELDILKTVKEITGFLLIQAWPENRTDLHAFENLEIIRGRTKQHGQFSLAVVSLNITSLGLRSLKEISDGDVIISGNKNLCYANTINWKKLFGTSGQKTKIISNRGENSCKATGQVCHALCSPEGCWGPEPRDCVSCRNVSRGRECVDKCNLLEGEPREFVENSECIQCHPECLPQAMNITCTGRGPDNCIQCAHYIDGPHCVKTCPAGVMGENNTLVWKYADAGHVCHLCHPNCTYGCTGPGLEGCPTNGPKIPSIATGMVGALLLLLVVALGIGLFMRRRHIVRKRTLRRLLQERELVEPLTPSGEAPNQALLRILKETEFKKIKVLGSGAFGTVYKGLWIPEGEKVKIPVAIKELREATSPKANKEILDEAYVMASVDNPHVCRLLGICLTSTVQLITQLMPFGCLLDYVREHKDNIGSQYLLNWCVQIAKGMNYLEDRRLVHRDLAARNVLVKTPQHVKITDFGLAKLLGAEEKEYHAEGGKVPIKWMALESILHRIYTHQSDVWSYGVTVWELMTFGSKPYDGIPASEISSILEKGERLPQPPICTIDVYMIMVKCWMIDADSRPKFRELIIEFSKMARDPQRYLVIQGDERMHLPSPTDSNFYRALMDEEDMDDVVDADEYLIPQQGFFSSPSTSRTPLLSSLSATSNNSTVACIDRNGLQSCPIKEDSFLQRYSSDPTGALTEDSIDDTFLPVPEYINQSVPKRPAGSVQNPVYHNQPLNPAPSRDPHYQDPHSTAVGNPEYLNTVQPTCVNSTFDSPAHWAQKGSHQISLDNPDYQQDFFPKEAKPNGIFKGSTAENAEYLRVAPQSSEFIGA
T5 sequence (P43403 whole entry): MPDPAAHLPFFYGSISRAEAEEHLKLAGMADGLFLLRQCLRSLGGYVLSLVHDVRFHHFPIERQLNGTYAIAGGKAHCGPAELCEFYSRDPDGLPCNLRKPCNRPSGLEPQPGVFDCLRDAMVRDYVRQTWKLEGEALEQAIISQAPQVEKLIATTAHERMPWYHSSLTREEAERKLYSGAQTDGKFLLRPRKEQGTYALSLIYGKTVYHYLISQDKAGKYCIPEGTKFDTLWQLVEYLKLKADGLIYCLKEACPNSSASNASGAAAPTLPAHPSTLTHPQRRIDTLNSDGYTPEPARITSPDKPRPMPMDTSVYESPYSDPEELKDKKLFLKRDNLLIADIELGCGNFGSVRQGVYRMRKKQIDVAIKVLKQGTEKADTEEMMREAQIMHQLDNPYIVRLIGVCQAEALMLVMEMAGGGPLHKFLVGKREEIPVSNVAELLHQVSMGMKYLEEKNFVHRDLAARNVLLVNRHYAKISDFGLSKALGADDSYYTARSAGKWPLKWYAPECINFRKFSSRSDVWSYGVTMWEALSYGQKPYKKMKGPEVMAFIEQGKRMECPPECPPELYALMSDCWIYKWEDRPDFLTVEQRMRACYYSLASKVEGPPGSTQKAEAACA
Chain of Protein Serine/Threonine Kinase, GSK3B (P49841 whole entry): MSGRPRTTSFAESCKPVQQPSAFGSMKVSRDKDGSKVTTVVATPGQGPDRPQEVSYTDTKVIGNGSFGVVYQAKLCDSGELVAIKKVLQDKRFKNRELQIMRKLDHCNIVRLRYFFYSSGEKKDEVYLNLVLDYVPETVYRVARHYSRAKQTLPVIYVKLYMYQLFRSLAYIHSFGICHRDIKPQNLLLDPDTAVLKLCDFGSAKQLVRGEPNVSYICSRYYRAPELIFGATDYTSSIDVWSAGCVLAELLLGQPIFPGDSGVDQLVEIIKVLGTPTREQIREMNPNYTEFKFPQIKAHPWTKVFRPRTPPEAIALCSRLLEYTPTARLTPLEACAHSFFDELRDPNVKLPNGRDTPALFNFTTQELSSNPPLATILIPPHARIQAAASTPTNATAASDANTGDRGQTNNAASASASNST
T15 sequence (P00797 whole entry): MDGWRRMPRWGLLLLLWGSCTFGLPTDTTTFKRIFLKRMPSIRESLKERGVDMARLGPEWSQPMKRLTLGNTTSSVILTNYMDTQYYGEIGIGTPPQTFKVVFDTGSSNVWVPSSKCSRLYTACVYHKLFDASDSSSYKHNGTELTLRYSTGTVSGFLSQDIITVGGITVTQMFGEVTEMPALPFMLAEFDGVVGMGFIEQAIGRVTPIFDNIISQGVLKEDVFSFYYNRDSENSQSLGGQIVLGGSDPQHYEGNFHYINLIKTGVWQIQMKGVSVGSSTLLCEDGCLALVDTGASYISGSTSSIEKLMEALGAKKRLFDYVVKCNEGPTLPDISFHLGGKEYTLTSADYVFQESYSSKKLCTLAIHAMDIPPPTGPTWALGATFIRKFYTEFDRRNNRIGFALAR
T7 sequence (Q92847 whole entry): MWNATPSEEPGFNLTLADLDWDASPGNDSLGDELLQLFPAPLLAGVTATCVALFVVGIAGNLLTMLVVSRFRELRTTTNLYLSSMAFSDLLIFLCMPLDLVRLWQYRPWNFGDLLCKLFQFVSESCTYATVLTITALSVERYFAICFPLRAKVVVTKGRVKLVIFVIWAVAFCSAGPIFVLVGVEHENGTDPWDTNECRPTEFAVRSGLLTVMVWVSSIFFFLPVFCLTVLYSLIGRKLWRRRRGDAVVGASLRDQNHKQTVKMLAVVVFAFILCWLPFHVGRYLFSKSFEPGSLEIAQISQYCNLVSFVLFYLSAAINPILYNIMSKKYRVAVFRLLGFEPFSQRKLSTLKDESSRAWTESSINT

SMILES: C[C@]1(Nc2cnc(C(F)(F)F)cn2)CCC[C@@H]1NC(=O)c1ncccc1-n1nccn1 [CVN45502]
- inhibition at 10 µM (Insulin): 2%
- inhibition at 10 µM [1]: -14%
- inhibition at 10 µM (Glucocorticoid): 13%
- inhibition at 10 µM [2]: -7%
- inhibition at 10 µM [3]: -1%
- IC50 (mouse Hcrtr1): 18 nM
- inhibition at 10 µM [4]: -5%
- inhibition at 10 µM [5]: -8%
- inhibition at 10 µM [6]: 6%
- inhibition at 10 µM [7]: 5%
- inhibition at 10 µM (Androgen (Testosterone)): -5%
- inhibition at 10 µM (Calcium Channel N-type): -1%
- Ki [8]: 13.8 nM
- inhibition at 10 µM [9]: 6%
- inhibition at 10 µM (5-Lipoxygenase): 14%
- inhibition at 10 µM (Peptidase, Renin): 10%
- inhibition at 10 µM [10]: -14%
- inhibition at 10 µM [11]: 12%
- inhibition at 10 µM [12]: -22%
- inhibition at 10 µM [13]: -4%
- inhibition at 10 µM [14]: 18%
- inhibition at 10 µM [15]: 5%
- inhibition at 10 µM [16]: 8%
- inhibition at 10 µM (Peptidase, Factor Xa): -2%
- Ki (Hcrtr2): 4.66 pKi
